The values below come from patent US20250171438A1 (Agios Pharmaceuticals, Inc., priority 2022, published 2025).

The target of one assay is T1, human PAH with the R408W mutation (Homo sapiens, UniProt P00439, R408W).
T1 construct: expressed in transfected cells
T1 sequence (P00439 1-452 R408W): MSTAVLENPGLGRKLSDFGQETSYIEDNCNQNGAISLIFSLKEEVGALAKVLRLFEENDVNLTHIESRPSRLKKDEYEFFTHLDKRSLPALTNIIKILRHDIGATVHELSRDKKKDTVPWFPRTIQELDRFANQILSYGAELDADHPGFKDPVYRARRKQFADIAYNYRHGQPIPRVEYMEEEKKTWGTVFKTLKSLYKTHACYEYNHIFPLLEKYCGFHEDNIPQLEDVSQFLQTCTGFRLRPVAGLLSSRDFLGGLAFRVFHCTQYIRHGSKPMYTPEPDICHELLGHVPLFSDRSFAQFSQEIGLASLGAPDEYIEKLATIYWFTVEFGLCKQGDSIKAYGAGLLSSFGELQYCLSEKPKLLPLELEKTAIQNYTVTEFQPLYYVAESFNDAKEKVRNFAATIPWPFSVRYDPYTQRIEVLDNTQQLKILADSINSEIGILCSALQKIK
Briefly: Cell Based Phenylalanine Flux Assay. The settings on record: A375 cells expressing human R408W PAH; 24 hrs compound incubation; 13C-Tyrosine by LC-MS; average where tested multiple times; read-out: AC50.
The AC50 is the midpoint of the concentration-response curve, whichever way the signal moves. For `O=C(c1oc(-c2ccccn2)nc1C1CC1)N1CCc2[nH]cnc2[C@H]1c1nc2c(F)cccc2s1` [Example 1535], the AC50 was less than 0.5 µM.

Consider `O=C(c1cnn(-c2ccccn2)c1Cl)N1CCc2[nH]cnc2[C@H]1c1nc2ccccc2s1` [Example 1895], for which the AC50 lay in the range of 0.5 to 1 µM.

As to `CC(C)n1ncc(C(=O)N2CCc3[nH]cnc3[C@@H]2c2nc3c(F)cccc3s2)c1Cl` [Example 1952, (R)-(5-chloro-1-isopropyl-1H-pyrazol-4-yl)(4-(4-fluorobenzo[d]thiazol-2-yl)-6,7-dihydro-1H-imidazo[4,5-c]pyridin-5(4H)-yl)methanone], the AC50 lay in the range of 1 to 5 µM.

Take `O=C(c1cnc(-c2c(F)cccc2F)s1)N1CCc2[nH]cnc2[C@@H]1c1nc2ccccc2s1` [Example 1510, (R)-(4-(benzo[d]thiazol-2-yl)-6,7-dihydro-1H-imidazo[4,5-c]pyridin-5(4H)-yl)(2-(2,6-difluorophenyl)thiazol-5-yl)methanone]: the AC50 is less than 0.5 µM.

As for `O=C(c1ncn2ccccc12)N1CCc2[nH]cnc2[C@@H]1c1nc2cccc(F)c2s1` [Example 1267, (R)-(4-(7-fluorobenzo[d]thiazol-2-yl)-6,7-dihydro-1H-imidazo[4,5-c]pyridin-5(4H)-yl)(imidazo[1,5-a]pyridin-1-yl)methanone], the AC50 was 1 to 5 µM.

With `O=C(c1nnc(-c2ccccn2)o1)N1CCc2[nH]cnc2[C@H]1c1nc2ccc(F)cc2s1` [Example 1720, (S)-(4-(6-fluorobenzo[d]thiazol-2-yl)-6,7-dihydro-1H-imidazo[4,5-c]pyridin-5(4H)-yl)(5-(pyridin-2-yl)-1,3,4-oxadiazol-2-yl)methanone], the AC50 is less than 0.5 µM.

Take `O=C(c1cnn2ccccc12)N1CCc2[nH]cnc2[C@@H]1c1nc2cccc(F)c2s1` [Example 1110, (R)-(4-(7-fluorobenzo[d]thiazol-2-yl)-6,7-dihydro-1H-imidazo[4,5-c]pyridin-5(4H)-yl)(pyrazolo[1,5-a]pyridin-3-yl)methanone]: the AC50 was in the range of 0.5 to 1 µM.

With `O=C(c1cnco1)N1CCc2[nH]cnc2[C@H]1c1nc2cccc(F)c2s1` [Example 1247, (S)-(4-(7-fluorobenzo[d]thiazol-2-yl)-6,7-dihydro-1H-imidazo[4,5-c]pyridin-5(4H)-yl)(oxazol-5-yl)methanone], the AC50 lay in the range of 1 to 5 µM.

Take `O=C(c1cnc(-c2ccnc(C(F)(F)F)c2)s1)N1CCc2[nH]cnc2[C@@H]1c1nc2ccccc2s1` [Example 1404, (R)-(4-(benzo[d]thiazol-2-yl)-6,7-dihydro-1H-imidazo[4,5-c]pyridin-5(4H)-yl)(2-(2-(trifluoromethyl)pyridin-4-yl)thiazol-5-yl)methanone]: the AC50 fell in the range of 1 to 5 µM.

On to `CCn1cnnc1C(=O)N1CCc2[nH]cnc2[C@@H]1c1nc2c(F)cccc2s1` [Example 2043, (R)-(4-ethyl-4H-1,2,4-triazol-3-yl)(4-(4-fluorobenzo[d]thiazol-2-yl)-6,7-dihydro-1H-imidazo[4,5-c]pyridin-5(4H)-yl)methanone], for which the AC50 fell in the range of 1 to 5 µM.

Consider `O=C(c1ccnn1C1CC1)N1CCc2[nH]cnc2[C@H]1c1nc2c(F)cccc2s1` [Example 1735], for which the AC50 is less than 0.5 µM.

For the compound `Cc1cnc(CC(=O)N2CCc3[nH]cnc3[C@@H]2c2nc3ccccc3s2)s1` [Example 1458, (R)-1-(4-(benzo[d]thiazol-2-yl)-6,7-dihydro-1H-imidazo[4,5-c]pyridin-5(4H)-yl)-2-(5-methylthiazol-2-yl)ethanone], the half-maximal activity concentration (AC50) lay in the range of 1 to 5 µM.

Consider `O=C(c1nnc(-c2ccc(F)cc2)o1)N1CCc2[nH]cnc2[C@H]1c1nc2ccccc2s1` [Example 1369], for which the AC50 is less than 0.5 µM.

Take `CC(C)(O)c1ccc2c(C(=O)N3CCc4[nH]cnc4[C@@H]3c3nc4c(F)cccc4s3)cnn2c1` [Example 1502, (R)-(4-(4-fluorobenzo[d]thiazol-2-yl)-6,7-dihydro-1H-imidazo[4,5-c]pyridin-5(4H)-yl)(6-(2-hydroxypropan-2-yl)pyrazolo[1,5-a]pyridin-3-yl)methanone]: the AC50 was in the range of 1 to 5 µM.

`O=C(c1oc(C2CC2)nc1C(F)(F)F)N1CCc2[nH]cnc2[C@H]1c1nc2c(F)cccc2s1` [Example 2183, (S)-(2-cyclopropyl-4-(trifluoromethyl)oxazol-5-yl)(4-(4-fluorobenzo[d]thiazol-2-yl)-1,4,6,7-tetrahydro-5H-imidazo[4,5-c]pyridin-5-yl)methanone]: the AC50 is less than 0.5 µM.

`O=C(c1cnn(C2CC2)c1Cl)N1CCc2[nH]cnc2[C@@H]1c1nc2c(F)cccc2s1` [Example 1970, (R)-(5-chloro-1-cyclopropyl-1H-pyrazol-4-yl)(4-(4-fluorobenzo[d]thiazol-2-yl)-6,7-dihydro-1H-imidazo[4,5-c]pyridin-5(4H)-yl)methanone]: the AC50 is 1 to 5 µM.

In the case of `O=C(c1nccs1)N1CCc2[nH]cnc2[C@H]1c1nc2ccccc2[nH]1` [Example 903, (S)-(4-(1H-benzo[d]imidazol-2-yl)-6,7-dihydro-1H-imidazo[4,5-c]pyridin-5(4H)-yl)(thiazol-2-yl)methanone], the AC50 lay within 0.5 to 1 µM.

Take `O=C(c1cnc(-c2ccccc2)s1)N1CCc2[nH]cnc2[C@H]1c1nc2ccccc2s1` [Example 1203]: the AC50 lay within 0.5 to 1 µM.

Take `CC(C)(C)n1ncc(C(=O)N2CCc3[nH]cnc3[C@H]2c2nc3c(F)cccc3s2)c1Cl` [Example 1931]: the AC50 was in the range of 0.5 to 1 µM.

In the case of `Cc1cccc2sc([C@@H]3c4nc[nH]c4CCN3C(=O)c3ocnc3C#N)nc12` [Example 2019, (S)-5-(4-(4-methylbenzo[d]thiazol-2-yl)-4,5,6,7-tetrahydro-1H-imidazo[4,5-c]pyridine-5-carbonyl)oxazole-4-carbonitrile], the AC50 is less than 0.5 µM.

In the case of `CC(C)(C)OC(=O)N1CC(c2nnc(C(=O)N3CCc4[nH]cnc4[C@H]3c3nc4ccccc4s3)o2)C1` [Example 1893, (S)-tert-butyl 3-(5-(4-(benzo[d]thiazol-2-yl)-4,5,6,7-tetrahydro-1H-imidazo[4,5-c]pyridine-5-carbonyl)-1,3,4-oxadiazol-2-yl)azetidine-1-carboxylate], the AC50 was in the range of 0.5 to 1 µM.

Consider `CC(C)(O)c1nnc(C(=O)N2CCc3[nH]cnc3[C@H]2c2nc3ccccc3s2)o1` [Example 1508], for which the AC50 fell in the range of 1 to 5 µM.

Turning to `Cc1nn(C)cc1-c1nnc(C(=O)N2CCc3[nH]cnc3[C@@H]2c2nc3ccccc3s2)o1` [Example 1926, (R)-(4-(benzo[d]thiazol-2-yl)-6,7-dihydro-1H-imidazo[4,5-c]pyridin-5(4H)-yl)(5-(1,3-dimethyl-1H-pyrazol-4-yl)-1,3,4-oxadiazol-2-yl)methanone], the AC50 was in the range of 1 to 5 µM.

Regarding `Cc1nc(C2(O)CC2)oc1C(=O)N1CCc2[nH]cnc2[C@H]1c1nc2c(F)cccc2s1` [Example 1949, (S)-(4-(4-fluorobenzo[d]thiazol-2-yl)-6,7-dihydro-1H-imidazo[4,5-c]pyridin-5(4H)-yl)(2-(1-hydroxycyclopropyl)-4-methyloxazol-5-yl)methanone], the AC50 lay in the range of 0.5 to 1 µM.

Take `CN(C)CCc1ccc2c(C(=O)N3CCc4[nH]cnc4[C@@H]3c3nc4ccccc4s3)cnn2c1` [Example 1454, (R)-(4-(benzo[d]thiazol-2-yl)-6,7-dihydro-1H-imidazo[4,5-c]pyridin-5(4H)-yl)(6-(2-(dimethylamino)ethyl)pyrazolo[1,5-a]pyridin-3-yl)methanone]: the AC50 is greater than 5 µM.

On to `CC1(C(=O)N2CCc3[nH]cnc3[C@@H]2c2nc3ccccc3s2)CC1(F)F` (single isomer, unassigned) [Example 1289], for which the AC50 fell in the range of 1 to 5 µM.

For `O=C(c1cnc(-c2ncccc2F)s1)N1CCc2[nH]cnc2[C@@H]1c1nc2ccccc2s1` [Example 1374, (R)-(4-(benzo[d]thiazol-2-yl)-6,7-dihydro-1H-imidazo[4,5-c]pyridin-5(4H)-yl)(2-(3-fluoropyridin-2-yl)thiazol-5-yl)methanone], the AC50 lay in the range of 0.5 to 1 µM.

The assay is the same for the next values; noted with them: A375 cells expressing human R408W PAH; 24 hrs with compound; 13C-Tyrosine by LC-MS; average where tested multiple times; read-out: AC50.
With `Cc1ncc(CC(=O)N2CCc3[nH]cnc3C2c2nc3ccccc3s2)o1` (stereo not drawn), the AC50 was greater than 5 µM.

In the case of `O=C(c1cnn2cc(CO)ccc12)N1CCc2[nH]cnc2C1c1nc2ccccc2s1` (stereo not drawn), the AC50 fell in the range of 1 to 5 µM.

`[2H]C([2H])([2H])OCc1cc(C(=O)N2CCc3[nH]cnc3C2c2nc3c(F)cccc3s2)n(C)n1` (stereo not drawn): the AC50 was greater than 5 µM.

For `CC(C)(O)c1cc(C(=O)N2CCc3[nH]cnc3C2c2nc3c(F)cccc3s2)sn1` (stereo not drawn), the AC50 lay in the range of 1 to 5 µM.

On to `O=C(c1nc2ccccc2s1)N1CCc2[nH]cnc2C1c1nc2cc(F)ccc2s1` (stereo not drawn), for which the AC50 was greater than 5 µM.

Consider `O=C(Cc1ncc(-c2ccccc2)s1)N1CCc2[nH]cnc2C1c1nc2ccccc2s1` (stereo not drawn), for which the AC50 was in the range of 1 to 5 µM.

On to `O=C(c1nnc(-c2ccccn2)o1)N1CCCc2[nH]cnc2C1c1nc2ccccc2[nH]1` (stereo not drawn), for which the AC50 is greater than 5 µM.

As to `CC(C)(O)c1nnc(C(=O)N2CCc3[nH]cnc3C2c2nc3c(F)cccc3s2)o1` (stereo not drawn), the AC50 fell in the range of 1 to 5 µM.

As to `Cc1nc(-c2ccccn2)oc1C(=O)N1CCCc2[nH]cnc2C1c1nc2ccccc2s1` (stereo not drawn), the AC50 lay in the range of 1 to 5 µM.

In the case of `O=C(c1cnco1)N1CC2(CC2)c2[nH]cnc2C1c1nc2ccccc2s1` (stereo not drawn), the AC50 was greater than 5 µM.

As to `O=C(c1nnc(C2CNC2)o1)N1CCc2[nH]cnc2C1c1nc2ccccc2s1` (stereo not drawn), the AC50 was greater than 5 µM.

`CC(C)(O)c1cc(C(=O)N2CCc3[nH]cnc3C2c2nc3ccccc3s2)sn1` (stereo not drawn): the AC50 was greater than 5 µM.
